Results published in patent US8697629B2, “Modulation of intracellular signaling” (Angstrom Pharmaceuticals, Inc., priority 2010, dated 2014).

Legend:
SKOV3 cells = assay: Adhesion of SKOV3 cells to hyaluronic acid; assay type: cell-based; conditions: immobilized HA; 1 or 10 uM Å6; 20 ng/ml IM7
Procedure: In FIG. 11 SKOV3 cells were cultured overnight with or without 10 μM Å6 or 100 ng/ml PMA. The cells were then detached, washed and loaded with 20 μg/ml CFDA-SE for 30 min at 37° C. After washing, the cells were resuspended in PBS containing 10% FCS and triplicate aliquots representing 100,000 cells incubated for 30 min at room temperature with no additions, 1 or 10 uM Å6 or with 20 ng/ml IM7, a blocking anti-CD44 rat monoclonal antibody. The cells were then placed into microtiter wells that had been coated with 50 μL of 1 mg/mL HA overnight and blocked for 30 min with 10% FCS. The cells were allowed to adhere at room temperature for 30 minutes after which, the wells were decanted and washed 3 times. The fluorescence in each well was assessed (excit./emiss.: 460/536 nm) and the mean fluorescence values (+/standard deviation) of the triplicate determinations calculated.

B16 melanoma cells = assay: B16 melanoma lung metastasis model; assay type: in vivo, C57BL/6J mice; conditions: melanoma cells injected in the tail vein
Procedure: The B16 melanoma metastasis is well known in the art. A typical protocol for assessing the inhibitory effect of a compound on metastasis is described below. Such a protocol was followed to assess the effect of Å6 on metastasis.
Briefly, B16 melanoma cells can be cultured in RPMI-1640 with 10% fetal bovine serum at 37° C. in an atmosphere of 95% air and 5% CO2. C57BL/6J mice of six to eight weeks can be purchased from commercial suppliers. For the lung metastasis model, about 1×10^5 melanoma cells suspended in 100 μl saline were injected in the tail vein in the presence or absence of Å6. Administration of the Å6 peptide inhibited the lung metastasis by 50% or more.

A2780 cells = assay: Boyden chamber chemotaxis of A2780 cells; assay type: cell-based; conditions: 10 ng/ml VEGF in NIH3T3-conditioned media, overnight
Procedure: A2780 (FIG. 10a) and SKOV3 (FIG. 10b) cells were incubated with the indicated concentrations of Å6 peptide for 30 min at 37° C. Aliquots representing 6,000 cells were placed on quadruplicate, CnI-coated filters (8 μm pores) in Boyden chambers and the cells allowed to migrate overnight in response to 10 ng/ml VEGF in NIH3T3-conditioned media containing the indicated concentrations of Å6. Upon completion of migration, the apical surfaces of the membranes were wiped clean and the migrating cells on the basal surface were stained with Geimsa stain and the cells present in representative fields of the membranes counted. Data represent the averages+/−standard deviations obtained from the replicate filters. […] This provides further confirmation that CD44 is the target for the Å6 peptide.

CD44 [1] = target: T1, CD44 (Homo sapiens, UniProt P16070); assay: IM7 binding to SKOV3 cells, FACs analysis; assay type: cell-based; conditions: IM7 1 μg/ml, 4° C.
T1 construct: endogenous in cells; host or cells: SKOV3 cells
T1 sequence (P16070 21-742): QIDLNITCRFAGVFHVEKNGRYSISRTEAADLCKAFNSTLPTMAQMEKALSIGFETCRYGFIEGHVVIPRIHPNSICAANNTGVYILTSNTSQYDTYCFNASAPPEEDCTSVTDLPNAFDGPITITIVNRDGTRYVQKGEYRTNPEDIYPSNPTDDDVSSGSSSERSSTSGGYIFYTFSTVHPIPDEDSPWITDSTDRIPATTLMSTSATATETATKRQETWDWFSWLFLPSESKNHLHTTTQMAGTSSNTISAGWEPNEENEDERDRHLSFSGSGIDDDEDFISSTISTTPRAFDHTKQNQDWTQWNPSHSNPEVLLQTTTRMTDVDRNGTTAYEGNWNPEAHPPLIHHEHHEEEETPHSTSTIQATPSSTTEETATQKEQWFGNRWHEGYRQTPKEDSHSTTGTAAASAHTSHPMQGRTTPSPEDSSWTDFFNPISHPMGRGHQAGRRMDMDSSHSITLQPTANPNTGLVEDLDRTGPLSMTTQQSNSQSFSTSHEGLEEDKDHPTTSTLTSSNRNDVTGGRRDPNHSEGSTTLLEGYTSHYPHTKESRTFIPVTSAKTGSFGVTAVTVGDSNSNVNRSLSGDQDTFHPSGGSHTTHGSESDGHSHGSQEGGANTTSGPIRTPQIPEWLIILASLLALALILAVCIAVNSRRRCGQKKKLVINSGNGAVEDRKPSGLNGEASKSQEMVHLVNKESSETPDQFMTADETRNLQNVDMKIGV
Procedure: In FIGS. 14a and 14b SKOV3 cells were incubated with the indicated concentrations of Å6 for 30 min at 4° C. IM7 (1 μg/ml) was then added and allowed to bind for 30 min at 4° C., after which the cells were washed and incubated with FITC-donkey anti-rat IgG for 30 min at 4° C. The cells were washed once and then subjected to FACs analysis.

CD44 [2] = target: T1, CD44; assay: FACs analysis of anti-CD44 (DF1485) binding to SKOV3 cells in the presence of Å6; assay type: cell-based; conditions: pre-incubation with Å6 10 or 30 min on ice
Procedure: In FIG. 4 SKOV3 cells were detached from their culture flasks by brief trypsinization, washed twice with DPBS and incubated on ice with the indicated concentrations of Å6 for 10 min (exp. 1) or 30 min (exp. 2). Anti-CD44 (DF1485; Santa Cruz Biotech.) or its isotype control were then added to final concentrations of 1 μg/ml (exp. 1) or 1 and 0.5 μg/ml (exp. 2) and the cells incubated for 1 hr on ice. The cells were washed once and incubated with FITC-conjugated donkey anti-mouse IgG (H+L) for 30 minutes on ice and then subjected to FACS analysis with a Beckman Coulter Epics XL-MCL cytofluorimeter. Data analysis was performed using the Coulter Epics software. Note: Data are presented as mean fluorescence intensities (MnI) obtained with the MnI of the negative control in each experiment adjusted to <0.5 during data collection. […] Similar CD44 expression in ovarian cancer lines using different anti-CD44 antibodies is assessed in FIG. 5, for which the MnI values are summarized in FIG. 6.

Substance: acetyl-Lys-Pro-Ser-Ser-Pro-Pro-Glu-Glu-NH2 (Ac-KPSSPPEE-NH2) [Å6]
- SKOV3 binding to HA (SKOV3 cells): enhanced
- inhibition of lung metastasis (B16 melanoma cells): ≥ 50%
- migration of A2780 (A2780 cells): essentially unaffected
- IM7 antibody binding to SKOV3 cells (CD44 [1]): increase in antibody binding with increasing concentration
- binding of DF1485 anti-CD44 to SKOV3 cells (MnI) (CD44 [2]): inhibits the binding of DF1485 anti-CD44 to SKOV3 cells
